# Experimental data as given in patent US20050234111A1, “D-homo-17-chlor-16(17)-ene steroids” (priority 2004, published 2005).
# Biological target: T1, androgen receptor (Rattus norvegicus, UniProt P15207)
# T1 construct: on receptors in cystosol from animal target organs; from tissue; host or cells: prostate cytosol of castrated rat
# T1 sequence (P15207 1-902): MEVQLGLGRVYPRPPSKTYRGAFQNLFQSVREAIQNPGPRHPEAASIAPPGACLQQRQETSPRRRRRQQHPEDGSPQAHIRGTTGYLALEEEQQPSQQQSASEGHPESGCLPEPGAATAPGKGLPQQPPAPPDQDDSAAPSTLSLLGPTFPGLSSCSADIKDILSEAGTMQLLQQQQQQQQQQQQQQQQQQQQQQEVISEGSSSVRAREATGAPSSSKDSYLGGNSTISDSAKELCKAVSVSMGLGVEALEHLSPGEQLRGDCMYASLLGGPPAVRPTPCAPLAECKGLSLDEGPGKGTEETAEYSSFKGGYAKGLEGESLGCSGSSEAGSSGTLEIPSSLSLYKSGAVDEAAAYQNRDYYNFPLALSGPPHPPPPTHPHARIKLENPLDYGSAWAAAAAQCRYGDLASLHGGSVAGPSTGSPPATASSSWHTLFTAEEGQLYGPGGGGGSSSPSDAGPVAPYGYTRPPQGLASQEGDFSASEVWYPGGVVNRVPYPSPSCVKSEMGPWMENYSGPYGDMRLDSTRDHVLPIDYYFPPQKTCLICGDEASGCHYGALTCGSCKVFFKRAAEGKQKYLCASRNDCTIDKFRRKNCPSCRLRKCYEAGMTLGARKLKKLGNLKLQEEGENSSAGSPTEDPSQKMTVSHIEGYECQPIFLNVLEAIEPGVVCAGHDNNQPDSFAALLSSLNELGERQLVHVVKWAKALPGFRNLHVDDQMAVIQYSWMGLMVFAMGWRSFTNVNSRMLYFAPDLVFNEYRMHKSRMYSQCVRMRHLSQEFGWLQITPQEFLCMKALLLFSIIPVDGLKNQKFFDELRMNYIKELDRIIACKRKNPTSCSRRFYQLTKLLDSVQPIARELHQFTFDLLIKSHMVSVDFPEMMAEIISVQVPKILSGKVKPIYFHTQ
# Test: Measurement of the androgen receptor binding affinity (competitive binding with 3H-Metribolone tracer in prostate cytosol)
# Settings: prostate cytosol of the castrated rat; tracer 3H-Metribolone; reference substance DHT = 100%; 0-4° C., 18 hours
# Method: Measurement of the androgen receptor binding affinity:
# The receptor binding affinity was determined by competitive binding of a specifically binding 3H-labeled hormone (tracer) and the compound to be tested on receptors in cystosol from animal target organs. In this case, receptor saturation and reaction equilibrium were desired.
# The tracer and increasing concentrations of the compound to be tested (competitor) were co-incubated at 0-4° C. over 18 hours with the receptor-containing cytosol fraction. After separation of the unbonded tracer with carbon-dextran suspension, the receptor-bonded tracer portion was measured for each concentration and the IC50 was determined from the concentration series.
# The following incubation conditions were selected:
# Prostate cytosol of the castrated rat; prostates stored at −30° C.;
row,SMILES,RBA % (relative molar binding affinity)
1,"CC1CC2=CC(=O)CCC2(C)C2CCC3(C)C(O)C(Cl)=CCC3C12 (stereo not drawn) [Compound 2, 17-Chloro-17aβ-hydroxy-7α-methyl-17a-homoandrosta-4,16-dien-3-one]",46%
2,"C[C@]12CC[C@H]3[C@@H](CCC4=C(C(F)(F)F)C(=O)CC[C@@]43C)[C@@H]1CC=C(Cl)[C@@H]2O [Compound 9, 17-Chloro-17aβ-hydroxy-4-trifluoromethyl-17a-homoandrosta-4,16-dien-3-one]",51%
3,"C[C@]12CC[C@H]3[C@@H](CCC4=CC(=O)CC[C@@H]43)[C@@H]1CC=C(Cl)[C@@H]2O [Compound 17, 17-Chloro-17aβ-hydroxy-17a-homo-estra-4,16-dien-3-one]",80%
4,"CC1CC2=CC(=O)CCC2C2CCC3(C)C(O)C(Cl)=CCC3C12 (stereo not drawn) [Compound 18, 17-Chloro-17aβ-hydroxy-7α-methyl-17a-homo-estra-4,16-dien-3-one]",105%
5,"CC12CCC3C4CCC(=O)C(O)=C4CCC3C1CC=C(Cl)C2O (centres unmarked) [Compound 21, 17-Chloro-4,17aβ-dihydroxy-17a-homo-estra-4,16-dien-3-one]",70%
